Source: patent US9840507B2, “5,6-dihydro-imidazo[1,2-a]pyrazin-8-ylamine derivatives useful as inhibitors of beta-secretase (BACE)” (Janssen Pharmaceutica, NV, priority 2010, dated 2017)
Like-named read-outs stand apart in the source and are kept apart here.

Key:
[1] = test system: Aβ42 produced and secreted into the medium of human neuroblastoma SKNBE2 cells; assay: Cellular αlisa assay in SKNBE2 cells, Aβ42; assay type: cell-based; conditions: for IC50: Homo sapiens, SKNBE2, 18 h, read-out: Cellular αlisa assay in SKNBE2 cells Aβ42 pIC50 (converted)
Method: (§1) In two αlisa assays the levels of Aβtotal and Aβ42 produced and secreted into the medium of human neuroblastoma SKNBE2 cells are quantified. The assay is based on the human neuroblastoma SKNBE2 expressing the wild type Amyloid Precursor Protein (hAPP695). The compounds are diluted and added to these cells, incubated for 18 hours and then measurements of Aβ42 and Aβtotal are taken. Aβtotal and Aβ42 are measured by sandwich αlisa. αlisa is a sandwich assay using biotinylated antibody AbN/25 attached to streptavidin coated beads and antibody Ab4G8 or cAb42/26 conjugated acceptor beads for the detection of Aβtotal and Aβ42 respectively. In the presence of Aβtotal or Aβ42, the beads come into close proximity. The excitation of the Donor beads provokes the release of singlet oxygen molecules that triggers a cascade of energy transfer in the Acceptor beads, resulting in light emission. Light emission is measured after 1 hour incubation (excitation at […] and emission at 615 nm).
(§2) A best-fit curve is fitted by a minimum sum of squares method to the plot of % Controlmin versus compound concentration.
(§3) LC=Median of the low control values
(§4) =Low control: cells preincubated without compound, without biotinylated Ab in the αlisa
(§5) HC=Median of the High control values
(§6) =High Control: cells preincubated without compound % Effect=100−[(sample−LC)/(HC−LC)*100] % Control=(sample/HC)*100% % Controlmin=(sample−LC)/(HC−LC)*100

[2] = test system: Aβtotal produced and secreted into the medium of human neuroblastoma SKNBE2 cells; assay: Cellular αlisa assay in SKNBE2 cells, Aβtotal; assay type: cell-based; conditions: for IC50: Homo sapiens, SKNBE2, 18 h, read-out: Cellular αlisa assay in SKNBE2 cells Aβtotal pIC50 (converted)
Method: as §1, §2, §3, §4, §5, §6

[3] = target: T1, recombinant BACE1 protein (Homo sapiens, UniProt P56817); assay: Biochemical FRET based assay; conditions: recombinant BACE1 1 μg/ml, 10 μm substrate, 120 minutes, room temperature, pH 5.0; for IC50: read-out: Biochemical FRET based assay pIC50 (converted)
T1 construct: recombinant BACE1 protein in a final concentration of 1 μg/ml
Excerpt: This assay is a Fluorescence Resonance Energy Transfer Assay (FRET) based assay. The substrate for this assay is an APP derived 13 amino acids peptide that contains the ‘Swedish’ Lys-Met/Asn-Leu mutation of the amyloid precursor protein (APP) β-secretase cleavage site. This substrate also contains two fluorophores: (7-methoxycoumarin-4-yl) acetic acid (Mca) is a fluorescent donor with excitation wavelength at 320 nm and emission at 405 nm and 2,4-Dinitrophenyl (Dnp) is a proprietary quencher acceptor. […] Upon cleavage by BACE1, the fluorophore Mca is separated from the quenching group Dnp, restoring the full fluorescence yield of the donor. The increase in fluorescence is linearly related to the rate of proteolysis (Koike H et al. J. Biochem. 1999, 126, 235-242).
Briefly in a 384-well format recombinant BACE1 protein in a final concentration of 1 μg/ml is incubated for 120 minutes at room temperature with 10 μm substrate in incubation buffer (40 mM Citrate buffer pH 5.0, 0.04% PEG, 4% DMSO) in the absence or presence of compound. Next the amount of proteolysis is directly measured by fluorescence measurement at T=0 and T=120 (excitation at 320 nm and emission at 405 nm).
as §3
=Low control: Reaction without enzyme
as §5
=High Control: Reaction with enzyme % Effect=100−[(sample−LC)/(HC−LC)*100] % Control=(sample/HC)*100% % Controlmin=(sample−LC)/(HC−LC)*100

[4] = SKNBE2 cells expressing hAPP695, incubated for 18 hours

T1 sequence (P56817 46-501): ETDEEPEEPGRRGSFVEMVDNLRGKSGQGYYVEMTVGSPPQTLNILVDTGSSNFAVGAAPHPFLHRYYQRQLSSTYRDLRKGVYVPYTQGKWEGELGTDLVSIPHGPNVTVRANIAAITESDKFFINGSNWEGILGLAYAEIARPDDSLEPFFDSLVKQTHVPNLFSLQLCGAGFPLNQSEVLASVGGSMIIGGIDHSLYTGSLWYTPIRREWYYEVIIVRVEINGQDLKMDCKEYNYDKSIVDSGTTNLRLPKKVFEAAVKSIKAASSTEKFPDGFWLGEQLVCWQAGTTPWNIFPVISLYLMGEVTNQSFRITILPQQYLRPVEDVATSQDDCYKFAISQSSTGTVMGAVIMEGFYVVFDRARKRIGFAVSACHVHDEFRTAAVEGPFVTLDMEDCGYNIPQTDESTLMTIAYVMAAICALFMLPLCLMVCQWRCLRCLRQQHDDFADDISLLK

| SMILES | IC50 [1, 4] [nM] | IC50 [2, 4] [nM] | IC50 [3] [nM] | Cellular αlisa assay in SKNBE2 cells Aβ42 pIC50 [1, 4] | Cellular αlisa assay in SKNBE2 cells Aβtotal pIC50 [2, 4] | Biochemical FRET based assay pIC50 [3] | IC50 [1] [nM] | IC50 [2] [nM] |
| --- | --- | --- | --- | --- | --- | --- | --- | --- |
| C[C@@]1(c2cc(NC(=O)c3ncc(Cl)cc3F)ccc2F)Cn2ccnc2C(N)=N1 [Compound 20] | 17.4 | 17.8 | 75.9 | – | – | – | – | – |
| C[C@@]1(c2cc(NC(=O)c3ccc(F)cn3)ccc2F)Cn2cc(Br)nc2C(N)=N1 [Compound 54] | 32.4 | 35.5 | 75.9 | – | – | – | – | – |
| CC1(c2cc(NC(=O)c3ccc(Cl)cn3)ccc2F)Cn2ccnc2C(N)=N1 (single isomer, unassigned) [Compound 8] | 12.3 | 11 | – | – | – | – | – | – |
| C[C@@]1(c2cc(NC(=O)c3ccsn3)ccc2F)Cn2cc(C(F)(F)F)nc2C(N)=N1 [Compound 40] | 87.1 | 91.2 | 229 | – | – | – | – | – |
| Cc1nc(C(=O)Nc2ccc(F)c([C@]3(C)Cn4cc(C(F)(F)F)nc4C(N)=N3)c2)c(C)o1 [Compound 41] | 120 | 117 | 178 | – | – | – | – | – |
| Cc1nc(C(=O)Nc2ccc(F)c([C@]3(C)Cn4ccnc4C(N)=N3)c2)c(C(F)(F)F)o1 [Compound 44] | 95.5 | 93.3 | 380 | – | – | – | – | – |
| Cc1nc(C(=O)Nc2ccc(F)c([C@]3(C)Cn4cc(C(F)(F)F)nc4C(N)=N3)c2)c(C(F)(F)F)o1 [Compound 39] | 158 | 158 | 269 | – | – | – | – | – |
| C[C@@]1(c2cc(NC(=O)c3ccn(C(F)F)n3)ccc2F)Cn2cc(C(F)F)nc2C(N)=N1 [Compound 51] | – | – | 162 | – | – | – | – | – |
| Cc1nc(C(=O)Nc2ccc(F)c([C@]3(C)Cn4cc(C(F)(F)F)nc4C(N)=N3)c2)co1 [Compound 38] | 42.7 | 41.7 | 100 | – | – | – | – | – |
| C[C@@]1(c2cc(NC(=O)c3ncc(Cl)cc3Cl)ccc2F)Cn2ccnc2C(N)=N1 [Compound 19] | 11 | 9.77 | 49 | – | – | – | – | – |
| C[C@@]1(c2cc(NC(=O)c3ccc(C#N)cn3)ccc2F)Cn2cc(C(F)F)nc2C(N)=N1 [Compound 49] | 8.51 | 9.33 | 97.7 | – | – | – | – | – |
| NC1=NC(c2cc(NC(=O)c3ccc(F)cn3)ccc2F)(C(F)F)Cn2ccnc21 (stereo not drawn) [Compound 27] | – | – | 589 | 6.05 | 6.11 | – | – | – |
| Cc1nc(C(=O)Nc2ccc(F)c([C@]3(C)Cn4ccnc4C(N)=N3)c2)co1 [Compound 43] | 38 | 42.7 | 186 | – | – | – | – | – |
| Cc1nc(C(=O)Nc2ccc(F)c([C@]3(C)Cn4ccnc4C(N)=N3)c2)c(C)o1 [Compound 46] | 89.1 | 83.2 | 380 | – | – | – | – | – |
| COc1cncc(-c2cccc(C3(C)Cn4ccnc4C(N)=N3)c2)c1 (racemic) [Compound 2, rac-6-[3-(5-methoxy-pyridin-3-yl)-phenyl]-6-methyl-5,6-dihydro-imidazo[1,2-a]pyrazin-8-ylamine] | 2140 | 2340 | – | – | – | >4.52 | – | – |
| CC1(c2cccc(-c3cc(Cl)cc(Cl)c3)c2)Cn2ccnc2C(N)=N1 (racemic) [Compound 3, rac-6-(3′,5′-dichloro-biphenyl-3-yl)-6-methyl-5,6-dihydro-imidazo[1,2-a]pyrazin-8-ylamine] | – | – | 26900 | – | – | – | 7940 | 7080 |
| COc1ccc(C(=O)Nc2ccc(F)c([C@]3(C)Cn4ccnc4C(N)=N3)c2)nc1 [Compound 17] | 17.4 | 16.6 | 107 | – | – | – | – | – |
| C[C@@]1(c2cc(NC(=O)c3ccc(F)cn3)ccc2F)Cn2cc(Cl)nc2C(N)=N1 [Compound 53] | 36.3 | 35.5 | 61.7 | – | – | – | – | – |

| SMILES | IC50 [1, 4] [nM] | IC50 [2, 4] [nM] | IC50 [3] [nM] | Cellular αlisa assay in SKNBE2 cells Aβ42 pIC50 [1, 4] | Cellular αlisa assay in SKNBE2 cells Aβtotal pIC50 [2, 4] | Biochemical FRET based assay pIC50 [3] | IC50 [1] [nM] | IC50 [2] [nM] |
| --- | --- | --- | --- | --- | --- | --- | --- | --- |
| CC1(c2cccc(-c3cncnc3)c2)Cn2ccnc2C(N)=N1 (racemic) [Compound 1, rac-6-methyl-6-(3-pyrimidin-5-yl-phenyl)-5,6-dihydro-imidazo[1,2-a]pyrazin-8-ylamine] | 191 | 174 | 9770 | – | – | – | – | – |
| C[C@@]1(c2cccc(-c3cncnc3)c2)Cn2ccnc2C(N)=N1 [Compound 4, (R)-6-methyl-6-(3-pyrimidin-5-yl-phenyl)-5,6-dihydro-imidazo[1,2-a]pyrazin-8-ylamine] | 7760 | 7760 | – | – | – | >4.52 | – | – |
| COc1cnc(C(=O)Nc2ccc(F)c([C@]3(C)Cn4cc(Br)nc4C(N)=N3)c2)cn1 [Compound 55] | 31.6 | 32.4 | 112 | – | – | – | – | – |
| CC1(c2cc(-c3cncnc3)ccc2F)Cn2ccnc2C(N)=N1 (single isomer, unassigned) [Compound 7] | 2750 | 2400 | 20000 | – | – | – | – | – |
| CC1(c2cc(-c3cncc(Cl)c3)c(F)cc2F)Cn2ccnc2C(N)=N1 (single isomer, unassigned) [Compound 12] | 2340 | 2190 | 18600 | – | – | – | – | – |
| C[C@@]1(c2cc(NC(=O)c3ncc(C#N)cc3F)ccc2F)Cn2ccnc2C(N)=N1 [Compound 22] | 9.55 | 8.51 | 95.5 | – | – | – | – | – |
| COc1cnc(C(=O)Nc2ccc(F)c([C@]3(C)Cn4cc(C(F)(F)F)nc4C(N)=N3)c2)cn1 [Compound 26] | 85.1 | 72.4 | 234 | – | – | – | – | – |
| C[C@@]1(c2cc(NC(=O)c3ccc(F)cn3)ccc2F)Cn2c(C#N)cnc2C(N)=N1 [Compound 66, (R)—N-{3-[8-amino-3-cyano-6-methyl-5,6-dihydroimidazo[1,2-a]pyrazin-6-yl]-4-fluorophenyl}-5-fluoropyridine-2-carboxamide] | – | – | 63.1 | – | – | – | – | – |
| C[C@@]1(c2cc(NC(=O)c3ccc(F)cn3)ccc2F)Cn2cc(C#N)nc2C(N)=N1 [Compound 56, (R)—N-{3-[8-amino-2-cyano-6-methyl-5,6-dihydroimidazo[1,2-a]pyrazin-6-yl]-4-fluorophenyl}-5-fluoropyridine-2-carboxamide] | 20.9 | 21.9 | 83.2 | – | – | – | – | – |
| C[C@@]1(c2cccc(-c3cc(Cl)cc(Cl)c3)c2)Cn2ccnc2C(N)=N1 [Compound 5, (R)-6-(3′,5′-dichloro-biphenyl-3-yl)-6-methyl-5,6-dihydro-imidazo[1,2-a]pyrazin-8-ylamine] | – | – | 14100 | – | – | – | 5890 | 5010 |
| NC1=NC(c2cc(NC(=O)c3ccc(F)cn3)ccc2F)(C(F)F)Cn2ccnc21 (stereo not drawn) [Compound 28] | – | – | 295 | 6.17 | 6.19 | – | – | – |
| C[C@@]1(c2cc(NC(=O)c3ccsn3)ccc2F)Cn2ccnc2C(N)=N1 [Compound 45] | 66.1 | 67.6 | 427 | – | – | – | – | – |
| COc1cnc(C(=O)Nc2ccc(F)c([C@]3(C)Cn4cc(Cl)nc4C(N)=N3)c2)cn1 [Compound 52] | 40.7 | 38 | 97.7 | – | – | – | – | – |
| C[C@@]1(c2cc(NC(=O)c3ccc(Cl)cn3)ccc2F)Cn2cc(C(F)F)nc2C(N)=N1 [Compound 50] | 7.41 | 8.13 | 58.9 | – | – | – | – | – |
| C[C@@]1(c2cc(NC(=O)c3ccn(C(F)F)n3)ccc2F)Cn2cc(C(F)(F)F)nc2C(N)=N1 [Compound 37] | 15.8 | 16.6 | – | – | – | – | – | – |
| C[C@@]1(c2cc(NC(=O)c3ccc(F)cn3)ccc2F)Cn2c(Cl)cnc2C(N)=N1 [Compound 58] | 20 | 20 | 75.9 | – | – | – | – | – |
| C[C@@]1(c2cc(NC(=O)c3ccn(C(F)F)n3)ccc2F)Cn2ccnc2C(N)=N1 [Compound 42] | 19.1 | 20 | 115 | – | – | – | – | – |
